Assay results as given in patent US20240327415A1, “Multicomponent Complexes, Including Salts, Crystalline Forms, and Hydrates and Solvates of ENT1 Inhibitors” (iTeos Belgium SA, priority 2023, published 2024).
Counter-ions that a name gives are not always drawn.

What was measured:
Type in all cases: physicochemical
[1] = salt screen, XRPD of damp, dried and 40° C./75% RH stored samples (Salt Preparation Methods 1 and 2); set-up: key: A: amorphous; Crystalline Form 10 mono(hydrogen sulfate); settings: Sulfuric Acid, 1 equiv.
Experimental: (§1) Salt Preparation Method 1: Approximately 25 mg of Compound 1 (free base) was weighed out into 1.5 mL screw-cap vials and a stirrer bar was added. For solid counterions, the appropriate amount of acid (1.0 or 2.0 equiv.) was weighed into separate 1.5 mL screw-cap vials. 100 μL of the appropriate solvent system was added to both the Compound 1 and the solid counterions. Stock solutions of liquid counterions were prepared, such that 100 μL contained 1.0 or 2.0 equiv. of acid. See counterion and solvent lists in Table 60 and Table 61 respectively.
(§2) The samples were stirred at 40° C. for 5-10 min and then the acid solutions were added to Compound 1, rinsing out the transfer vial with a further 50 μL of solvent. […] Experiments were temperature cycled between 40° C. and 5° C. (1 h hold; 0.1° C./min ramp/cool) for ca. 24-68 h. Anti-solvent addition (ASA) was carried out to slurries at 5° C. then experiments were heated to 30° C. over 1 h. ASA was carried out at 30° C. or 40° C. where clear solutions or gums were observed.
(§3) Temperature cycling was then continued for ca. 16-69 h, followed by further ASA and temperature cycling if required. Material was isolated at 5° C. and analyzed damp by XRPD. All isolated material was dried under vacuum at ca. 40° C. for ca. 17-91 h then re-analyzed by XRPD. The XRPD plate was stored at 40° C./75% RH for 24-48 h and then samples re-analyzed. Solutions were stored uncapped at ambient temperature to evaporate. Any residual solids were analyzed by XRPD.
(§4) Salt Preparation Method 2: The general procedure adopted in preparing the potential salts is outlined below. A known mass of Compound 1 (free base) and a known volume of the appropriate solvent system were added to 20 mL scintillation vials. The required mol. equiv. of the appropriate counterions were added to the vials as solutions or slurries in the corresponding solvent system.
(§5) The experiments were stirred at 40° C. for ca. 1 h, and then temperature cycled between 40° C. and 5° C. with 0.1° C./min ramp and 1 h hold between each step. Anti-solvent additions and subsequent slurrying at 5° C. were employed in order to facilitate crystallization. […] The damp and dried solids were subsampled and analyzed by XRPD. Where applicable, the dried solids were stored at 40° C./75% RH for 24-48 h in order to improve the crystallinity and/or facilitate solid form conversion to the desired form.

[2] = as above; set-up: key: A = amorphous; Evap. = isolated via evaporation; settings: Methanesulfonic acid, 2 equiv.
Experimental: as §1, §2, §3, §4, §5

[3] = as above; set-up: key to XRPD Analysis Damp/Dry: A = amorphous; Evap. = isolated via evaporation; settings: Methanesulfonic acid, 2 equiv.; IPA:H2O (75:25% v/v); AS tBME; (evap.)
Experimental: as §1, §2, §3, §4, §5

[4] = Variable Humidity X-Ray Powder Diffraction (VH-XRPD); set-up: key to VH-XRPD XRPD Results: A = amorphous; 1 = Form 1 Compound 1 hydrogen chloride; PC = poorly crystalline
Experimental: In the examples below, VH-XRPD analysis was carried out on a Philips X'Pert Pro Multipurpose diffractometer equipped with a humidity chamber. The samples were scanned between 4 and 36° 2θ using Cu K radiation (α1λ=1.54060 Å; α2=1.54443 Å; β=1.39225 Å; α1: α2 ratio=0.5; most, if not all, B radiation is removed from the beam using an X-ray mirror) running in Bragg-Brentano geometry (step size 0.008° 2θ) using 40 kV/40 mA generator settings. Measurements were carried out from 2-90% RH, with a final measurement taken at 40% RH.
VH-XRPD analysis was carried out on a Philips X'Pert Pro Multipurpose diffractometer equipped with a humidity chamber. The samples were scanned between 4 and 36° 2θ using Cu K radiation (α1 λ=1.54060 Å; α2=1.54443 Å; β=1.39225 Å; α1:α2 ratio=0.5; most, if not all, β radiation is removed from the beam using an X-ray mirror) running in Bragg-Brentano geometry (step size 0.008° 2θ) using 40 kV/40 mA generator settings. Measurements were carried out from 6-90% relative humidity (RH), with a final measurement taken at 40% RH.

[5] = Dynamic Vapor Sorption (DVS)
Experimental: (§6) METHOD A: In Example 11, approximately 5-15 mg of sample was placed into a mesh vapor sorption balance pan and loaded into either a DVS Intrinsic or DVS Advantage dynamic vapor sorption balance by Surface Measurement Systems. The sample was subjected to a ramping profile from 40-90% relative humidity (RH) at 10% increments, maintaining the sample at each step until a stable weight had been achieved (dm/dt 0.004%, minimum step length 30 minutes, maximum step length 500 minutes) at 25° C. After completion of the sorption cycle, the sample was dried using the same procedure to 0% RH and then a second sorption cycle back to 40% RH was carried out. Two cycles were performed. The weight change during the sorption/desorption cycles were plotted, allowing the hygroscopic nature of the sample to be determined. XRPD analysis was then carried out on the residual solid.
as §6, with “B:” for “A:”, “Examples 2A, 3, 14, and 17,” for “Example 11,”, “10-20” for “5-15”, “determined.” for “determined. XRPD analysis was then carried out on the residual solid.”
as §6, with “Approximately 10-20” for “METHOD A: In Example 11, approximately 5-15”, “RH” for “relative humidity (RH)”, “min,” for “minutes,”, “min)” for “minutes)”, “determined.” for “determined. XRPD analysis was then carried out on the residual solid.”

For `COc1cc(C(=O)O[C@@H]2CCCOc3cc(cc(OC)c3OC)C(=O)NCCCN3CCCN(CC2)CC3)cc(OC)c1OC` [Compound 1 mono(hydrogen sulfate)], the “XRPD Analysis 40° C. 75% RH” value ([1]; Acetonitrile, AS tBME) was “A”, the “XRPD Analysis Damp” value ([1]; Acetonitrile, AS tBME) was “A” and the “XRPD Analysis Dry” value ([1]; Acetonitrile, AS tBME) was “A”. For the same compound, the “XRPD Analysis 40° C. 75% RH” value ([1]; Ethanol, AS Heptane) was “A”, the “XRPD Analysis Damp” value ([1]; Ethanol, AS Heptane) was “A” and the “XRPD Analysis Dry” value ([1]; Ethanol, AS Heptane) was “A”. For the same compound, the “XRPD Analysis 40° C. 75% RH” value ([1]; Ethyl acetate, AS Heptane) was “A”, the “XRPD Analysis Damp” value ([1]; Ethyl acetate, AS Heptane) was “A” and the “XRPD Analysis Dry” value ([1]; Ethyl acetate, AS Heptane) was “A”. For the same compound, the “XRPD Analysis 40° C. 75% RH” value ([1]; IPA:H2O (75:25% v/v), AS tBME) was 10, the “XRPD Analysis Damp” value ([1]; IPA:H2O (75:25% v/v), AS tBME) was “A” and the “XRPD Analysis Dry” value ([1]; IPA:H2O (75:25% v/v), AS tBME) was “A”. The “XRPD Analysis 40° C. 75% RH” value ([1]; MEK, AS Heptane) was 10, the “XRPD Analysis Damp” value ([1]; MEK, AS Heptane) was “A” and the “XRPD Analysis Dry” value ([1]; MEK, AS Heptane) was “A”. For the same compound, the “XRPD Analysis 40° C. 75% RH” value ([1]; THF, AS Heptane) was “A”, the “XRPD Analysis Damp” value ([1]; THF, AS Heptane) was “A” and the “XRPD Analysis Dry” value ([1]; THF, AS Heptane) was “A”.

For `CS(=O)(=O)O` [Methanesulfonic acid, 2 equiv.], the “XRPD Analysis 40° C. 75% RH” value ([2]; Acetonitrile, AS tBME) was “A”, the “XRPD Analysis Damp” value ([2]; Acetonitrile, AS tBME) was “A” and the “XRPD Analysis Dry” value ([2]; Acetonitrile, AS tBME) was “A”. The “XRPD Analysis 40° C. 75% RH” value ([2]; Ethanol, AS Heptane) was “A”, the “XRPD Analysis Damp” value ([2]; Ethanol, AS Heptane) was “A” and the “XRPD Analysis Dry” value ([2]; Ethanol, AS Heptane) was “A”. The “XRPD Analysis 40° C. 75% RH” value ([2]; Ethyl acetate, AS Heptane) was “A”, the “XRPD Analysis Damp” value ([2]; Ethyl acetate, AS Heptane) was “A” and the “XRPD Analysis Dry” value ([2]; Ethyl acetate, AS Heptane) was “A”. The “XRPD Analysis 40° C. 75% RH” value ([2]; IPA:H2O (75:25% v/v), AS tBME) was “A”, the “XRPD Analysis 40° C. 75% RH” value ([2]; MEK, AS Heptane) was “A” and the “XRPD Analysis Damp” value ([2]; MEK, AS Heptane) was “A”. The “XRPD Analysis Dry” value ([2]; MEK, AS Heptane) was “A”, the “XRPD Analysis 40° C. 75% RH” value ([2]; THF, AS Heptane) was “A” and the “XRPD Analysis Damp” value ([2]; THF, AS Heptane) was “A”. The “XRPD Analysis Dry” value ([2]; THF, AS Heptane) was “A” and the “XRPD Analysis Damp/Dry” value [3] was “A (evap.)”.

For `COc1cc(C(=O)O[C@@H]2CCCOc3cc(cc(OC)c3OC)C(=O)NCCCN3CCCN(CC2)CC3)cc(OC)c1OC.O=S(=O)(O)O.O=S(=O)(O)O` [crystalline Form 5 Compound 1 di(hydrogen sulfate)], the “relative humidity at which conversion to crystalline Form 2 Compound 1 di(hydrogen sulfate) trihydrate is observed” value ([4]; Form 3: after extended exposure) was ≥ 10 % RH.

In the case of `COc1cc(C(=O)O[C@@H]2CCCOc3cc(cc(OC)c3OC)C(=O)NCCCN3CCCN(CC2)CC3)cc(OC)c1OC.Cl.Cl`, the “relative humidity range in which the form is retained (VH-XRPD)” value [4] is reported as 7-80 % RH, the “VH-XRPD XRPD Results” value ([4]; Desorption (1st), 7% RH, hold 60 min) is reported as 1 and the “VH-XRPD XRPD Results” value ([4]; Desorption (1st), 10% RH, hold 60 min) is reported as 1. For the same compound, the “VH-XRPD XRPD Results” value ([4]; Desorption (1st), 20% RH, hold 960 min) was 1, the “VH-XRPD XRPD Results” value ([4]; Desorption (1st), 40% RH, hold 60 min) was 1 and the “VH-XRPD XRPD Results” value ([4]; Desorption (2nd), 40% RH, hold 60 min) was 1. The “VH-XRPD XRPD Results” value ([4]; Desorption (2nd), 60% RH, hold 60 min) was 1, the “VH-XRPD XRPD Results” value ([4]; Sorption, 10% RH, hold 60 min) was 1 and the “VH-XRPD XRPD Results” value ([4]; Sorption, 20% RH, hold 60 min) was 1. The “VH-XRPD XRPD Results” value ([4]; Sorption, 40% RH, hold 60 min) was 1, the “VH-XRPD XRPD Results” value ([4]; Sorption, 60% RH, hold 60 min) was 1 and the “VH-XRPD XRPD Results” value ([4]; Sorption, 70% RH, hold 60 min) was 1. The “VH-XRPD XRPD Results” value ([4]; Sorption, 80% RH, hold 60 min) was 1, the hygroscopicity ([5]; 25° C.) was “moderate-high hygroscopicity” and the “hysteresis between the sorption and desorption cycles (DVS)” value ([5]; 25° C. (fumarate: at 20% RH)) was “ca. 1.3%”. For the same compound, the “post-DVS sample (XRPD / appearance)” value ([5]; DVS at 25° C.) was “gum-like material”, the “moisture uptake (DVS)” value ([5]; between 0-80% RH, second sorption cycle, 25° C.) was 18% and the “moisture uptake (DVS)” value ([5]; between 40-80% RH, first sorption cycle, 25° C.) was “ca. 5%”. For the same compound, the “moisture uptake (DVS)” value ([5]; between 80-90% RH, 25° C.) was 9%.
